This is an account of results in PubChem BioAssay AID743396 (Broad Institute, 2014).

The structures appear in SMILES notation. Active and inactive are the calls of the source.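 The calls were made as follows: active = fitted curve reaches a 40% rise in fluorescent cells at or below the top valid dose; inactive = opposite-direction effect, or the rest.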

A short description of this assay: compound fluorescence in GFP channel, mTEFS cells – imaging, mTEFS fibroblasts, cherry-pick, artefact control for X-chromosome reactivation project, dose response (AID 743396).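 Also: raw share of Hoechst-counted cells scored GFP positive without control normalization.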 The settings on record: mTEFS fibroblasts autofluorescence, GFP-channel imaging, 3 days; at 19.5 µM (top of the series); cells pretreated with 5-aza-dC.
In the case of `CC(=NNC(=S)Nc1cccc(Cl)c1)c1ccccn1`, the % fluorescent cells increase was 0% (inactive).

Turning to `COc1ccc(COc2ccccc2C(=O)NCc2ccccc2)cc1F`, the % fluorescent cells increase is 0% (inactive).

Regarding `COc1ccc(NC(=O)Nc2ccc3c(c2)C(=O)N([C@@H](C)CO)C[C@H](C)[C@@H](CN(C)S(=O)(=O)c2ccc(OC)cc2)O3)cc1`, the % fluorescent cells increase was 0% (inactive).

In the case of `C=CCNC(=O)N[C@@H](Cc1ccccc1)C(=O)OC`, the % fluorescent cells increase was 1.04% (inactive).

As for `S=C(NCc1ccco1)Nc1cccc(Cl)c1Cl`, the % fluorescent cells increase is 0.083% (inactive).

For the compound `O=C(CCl)N=c1sccn1Cc1cccc2ccccc12`, the % fluorescent cells increase was 9.31% (inactive).

In the case of `C=CCN(CC(O)c1cccc([N+](=O)[O-])c1)C(C)CCc1ccccc1` (stereo not given), the % fluorescent cells increase is 1.4% (inactive).

On to `Cn1c2ccccc2c2cnn(CC(=O)Nc3ccccc3Br)c(=O)c21`, for which the % fluorescent cells increase was -0.007% (inactive).

On to `COc1ccc2c3c([nH]c2c1)[C@@H](CO)N(Cc1ccccc1F)CC31CN(C(=O)C2CCOCC2)C1`, for which the % fluorescent cells increase was -0.038% (inactive).

Turning to `CC1=NN(c2ccc(C)c(C)c2)C(=O)/C1=C\C=C\c1ccc([N+](=O)[O-])o1`, the % fluorescent cells increase was -0.007% (inactive).

Turning to `Cc1nnc(SCc2cc(=O)oc3ccc4ccccc4c23)n1Cc1ccccc1`, the % fluorescent cells increase was 0% (inactive).

On to `O=C1c2cccc3c([N+](=O)[O-])ccc(c23)C(=O)N1Cc1cccnc1`, for which the % fluorescent cells increase is 11.8% (inactive).

As to `COCCN(C(=S)Nc1cccc(C)c1)C(C)c1cccnc1` (stereo not given), the % fluorescent cells increase is -0.004% (inactive).

For the compound `NC(=O)c1sc2nc3c(cc2c1N)CCCCCC3`, the % fluorescent cells increase is 0.03% (inactive).

With `CCOc1cccc(/C=N/NC(=S)Nc2cc(S(=O)(=O)N3CCOCC3)ccc2N2CCOCC2)c1O`, the % fluorescent cells increase is 0% (inactive).

In the case of `O=C(C[C@H]1CC[C@H]2[C@@H](COC[C@@H](O)CN2C(=O)Nc2ccccc2)O1)NCCc1ccncc1`, the % fluorescent cells increase was 0.044% (inactive).

`O=c1[nH]nc(SCCS(=O)(=O)c2ccc(F)cc2)n1-c1ccccc1C(F)(F)F`: the % fluorescent cells increase is -0.004% (inactive).

As to `O=C(c1nc(SCc2ccc([N+](=O)[O-])cc2)n2ccccc12)C(F)(F)F`, the % fluorescent cells increase was 0.04% (inactive).

For `CCOCCCNC(=O)C(c1ccc(C)cc1)N(Cc1cccs1)C(=O)c1ccccn1` (stereo not given), the % fluorescent cells increase is 0% (inactive).

Regarding `O=C(Nc1cccc(C(=O)O)c1)/C(=C\c1ccccc1)NC(=O)c1ccc(Br)o1`, the % fluorescent cells increase was 0% (inactive).

Consider `COc1ccc(C(=O)CN2Cc3ccccc3C2=N)cc1`, for which the % fluorescent cells increase was 0.041% (inactive).

Turning to `CC1CC(C)CN(C(=O)CSCC(=O)Nc2nc(-c3cccs3)cs2)C1` (stereo not given), the % fluorescent cells increase was 0% (inactive).

In the case of `CCOc1ccccc1N1C(=O)CC(Sc2nccc(C)n2)C1=O` (stereo not given), the % fluorescent cells increase was 0% (inactive).

As for `COc1ccc(CN(C)C[C@H]2OCCCC[C@@H](C)Oc3ccc(NC(=O)Nc4ccc(F)cc4)cc3C(=O)N([C@@H](C)CO)C[C@H]2C)cc1`, the % fluorescent cells increase is 0% (inactive).

On to `Cc1ccc(Nc2nc(N)nc(COC(=O)C3=COCCO3)n2)cc1`, for which the % fluorescent cells increase was -0.007% (inactive).

For the compound `Cc1ccc(NC(=O)c2cc(N3C(=O)C=CC3=O)ccc2N2CCOCC2)cc1Cl`, the % fluorescent cells increase was -0.004% (inactive).

As for `O=C(O)CSc1ncccn1`, the % fluorescent cells increase was 0.143% (inactive).

Take `COc1ccc(OC)c(/C=C/c2ccc3cccc(O)c3n2)c1`: the % fluorescent cells increase was -0.004% (inactive).

Turning to `COc1cc(/C=N/Nc2nc(N3CCCC3)nc(N3CCCC3)n2)ccc1OCc1ccccc1F`, the % fluorescent cells increase is 0.025% (inactive).

Take `CCCOc1ccc(C(=O)Nc2ccc(CN3CCOCC3)cc2)cc1`: the % fluorescent cells increase is 0% (inactive).

On to `Cc1ccc(S(=O)(=O)N(C)c2ccc(C)c([N+](=O)[O-])c2)cc1`, for which the % fluorescent cells increase was 0.055% (inactive).

`Brc1cccc(CNCC2CCCO2)c1` (stereo not given): the % fluorescent cells increase was 0.009% (inactive).

For the compound `CCOC(=O)/C(C#N)=C/C=C1/C=CC=CN1C`, the % fluorescent cells increase was 0.015% (inactive).

In the case of `CC(=O)c1cccc(-c2ccc3c(c2)C(C)(Cc2ccc(S(C)(=O)=O)cc2)C(=O)N3)c1` (stereo not given), the % fluorescent cells increase was 0% (inactive).

For `Cc1ccc2c(COC(=O)C34CC5CC(CC(C5)C3)C4)cc(=O)oc2c1`, the % fluorescent cells increase is 0% (inactive).

Take `C=CC[C@@H](CC(=O)N(CCO)Cc1ccccc1)C(=O)NCCOC(=O)[C@@H](CC=C)Cc1ccc(F)cc1`: the % fluorescent cells increase is 0.009% (inactive).

Take `CN(Cc1nccn1C)C(=O)CC1C(=O)NCCN1CC(c1ccccc1)c1ccccc1` (stereo not given): the % fluorescent cells increase was 0.889% (inactive).

For `CCOC(=O)Nc1cc2c(c(N)n1)N=C(c1ccccc1)CN2`, the % fluorescent cells increase was 0.925% (inactive).

Regarding `CCOC(=O)Cn1c(=NC(=O)c2ccc([N+](=O)[O-])s2)sc2ccccc21`, the % fluorescent cells increase was 12% (inactive).

As to `CC(C)NC(=O)N(C)C[C@@H]1OCCCC[C@H](C)Oc2ccc(NC(=O)Nc3ccc(C(F)(F)F)cc3)cc2C(=O)N([C@H](C)CO)C[C@@H]1C`, the % fluorescent cells increase was 0% (inactive).

With `CCCC(=O)OCCNc1cc(Sc2nccn2C)c2nonc2c1[N+](=O)[O-]`, the % fluorescent cells increase is 0% (inactive).

As to `Cc1ccccc1C1c2[nH]c3ccccc3c2CCN1Cc1cccn1-c1ncccn1` (stereo not given), the % fluorescent cells increase is 0.002% (inactive).

As for `CCOC(=O)N1CCN(Cc2cc(Cl)c3cccnc3c2O)CC1`, the % fluorescent cells increase is 0% (inactive).

Consider `O=C(COC(=O)/C=C/c1cccc(C(F)(F)F)c1)NC(=O)NCc1ccco1`, for which the % fluorescent cells increase is 0.351% (inactive).

As to `CN(C)CCN(C(=O)c1ccc(S(=O)(=O)N(C)c2ccccc2)cc1)c1nc2cc3c(cc2s1)OCCO3`, the % fluorescent cells increase was 0% (inactive).

For the compound `O=C1C2C3C=CC(CNS(=O)(=O)c4ccccc4[N+](=O)[O-])(O3)C2C(=O)N1c1ccccc1` (stereo not given), the % fluorescent cells increase is 0.044% (inactive).

With `CCCNC(=O)N1CC2(CN(S(C)(=O)=O)C2)c2c(n(C)c3cc(OC)ccc23)[C@H]1CO`, the % fluorescent cells increase was 0.032% (inactive).

As for `COC(=O)CCN1CCC(c2cc(-c3cccc(C(F)(F)F)c3)n[nH]2)CC1`, the % fluorescent cells increase is 0% (inactive).

Consider `Cn1c(NC(=O)c2ccc(F)cc2)c(-c2ccccn2)c(=O)c2ccccc21`, for which the % fluorescent cells increase was 0.007% (inactive).

Turning to `COc1ccc2c3c(n(C)c2c1)[C@@H](CO)N(C)CC31CN(C(=O)NC(C)C)C1`, the % fluorescent cells increase was -0.14% (inactive).

Turning to `Cc1ccc(S(=O)(=O)N(C)C[C@H]2OCCCC[C@@H](C)Oc3ccc(NC(=O)Nc4c(C)noc4C)cc3C(=O)N([C@H](C)CO)C[C@@H]2C)cc1`, the % fluorescent cells increase is 0.012% (inactive).

As to `CCc1nc(C)cn1S(=O)(=O)c1ccc([N+](=O)[O-])cc1`, the % fluorescent cells increase was 0.011% (inactive).

As to `COC(=O)c1ccc(CNC(=O)COC(=O)c2cc(Cl)ccc2O)cc1`, the % fluorescent cells increase is 0% (inactive).

On to `CC[C@]12c3[nH]c4cc(CCC(=O)N(C)C)ccc4c3CCN1C(=O)[C@@H](CC(=O)NCCC1=CCCCC1)C[C@@H]2C(=O)N1CCN(C(=O)c2ccco2)CC1`, for which the % fluorescent cells increase is 0.051% (inactive).

Turning to `COc1ccc(NC(=O)Nc2ccc3c(c2)C(=O)N([C@H](C)CO)C[C@H](C)[C@H](CN(C)Cc2ccc4c(c2)OCO4)O3)cc1`, the % fluorescent cells increase is -0.166% (inactive).

For `CC(=O)Oc1ccc2c(=O)c(-c3ccccc3)coc2c1`, the % fluorescent cells increase was 0.02% (inactive).

As to `Cc1nn(-c2ccccc2)c2ncc(C(=O)c3cc(Cl)ccc3O)cc12`, the % fluorescent cells increase was 0% (inactive).

Turning to `CC(=O)N(C)C[C@@H]1Oc2ncc(-c3cccnc3)cc2C(=O)N([C@@H](C)CO)C[C@@H]1C`, the % fluorescent cells increase is 0.097% (inactive).

`C=Cc1cnc([N+](=O)[O-])n1C`: the % fluorescent cells increase is 0.007% (inactive).

Consider `COC(=O)Nc1ccc(S(=O)(=O)N2CCCC(C(=O)N3CCN(C)CC3)C2)cc1` (stereo not given), for which the % fluorescent cells increase is 0% (inactive).

In the case of `O=C1C=CC(=O)C(CNc2ccc(C(=O)OCc3ccccc3)cc2)=C1`, the % fluorescent cells increase was 0% (inactive).

Take `O=C(CCN1CCCCC1)NCC[C@@H]1CC[C@H](NC(=O)C2CCCCC2)[C@H](CO)O1`: the % fluorescent cells increase is 0.045% (inactive).

With `Cc1c(/C=N\NC(=O)c2cc3ccccc3o2)c2ccccc2n1C`, the % fluorescent cells increase was 0% (inactive).

Regarding `C#Cc1cc(N2CCN(C(=O)c3ccoc3)CC2)n2nc(-c3cccc(Cl)c3)cc2n1`, the % fluorescent cells increase is 7.21% (inactive).

Consider `Cc1nn(-c2ccccc2)c(N)c1N=O`, for which the % fluorescent cells increase is 0% (inactive).

As to `CCCN(C(=O)c1ccc(-n2cncn2)c([N+](=O)[O-])c1)C1CCS(=O)(=O)C1` (stereo not given), the % fluorescent cells increase was 0.034% (inactive).

Turning to `CC[N+]1=C(C)C(C)(C)c2cc(C)ccc21`, the % fluorescent cells increase was 0.089% (inactive).

Take `CN(C)C(=O)C[C@@H]1C=C[C@H](NS(=O)(=O)c2ccccc2)[C@@H](CO)O1`: the % fluorescent cells increase is 0% (inactive).

With `N/C(=N\OC(=O)C12CC3CC(CC(C3)C1)C2)c1ccncc1`, the % fluorescent cells increase was -0.004% (inactive).

For `Oc1cc2c(c(Cl)c1O)CCNCC2c1ccccc1` (stereo not given), the % fluorescent cells increase is -0.007% (inactive).

On to `COc1ccc(-n2c(=O)n(Cc3ccccc3)c(=O)c3[nH]cnc32)cc1`, for which the % fluorescent cells increase is 0.008% (inactive).

In the case of `CCOc1ccc(NC(=S)NC(C)c2cccs2)cc1` (stereo not given), the % fluorescent cells increase is 0% (inactive).

As to `Cc1noc(C)c1S(=O)(=O)Nc1ccc2c(c1)C(=O)N([C@H](C)CO)C[C@H](C)[C@H](CN(C)C(=O)Nc1ccc(F)cc1)OCCCC[C@H](C)O2`, the % fluorescent cells increase was 0% (inactive).

As to `ClC1CCCCC1n1nnc2ccccc21` (stereo not given), the % fluorescent cells increase is 0.006% (inactive).

`O=C(O)c1ccccc1CSc1nc2ccccc2n1Cc1ccccc1C(=O)O`: the % fluorescent cells increase is 0.253% (inactive).
